Experimental data reported in publication PMC6254802, “Development of a High-Throughput Assay for Screening of γ-Secretase Inhibitor with Endogenous Human, Mouse or Drosophila γ-Secretase” (Molecules, 2009).
Where two headings read alike, the source gives them in different places.

Legend:
human γ-secretase = target: T1, human γ-secretase (Homo sapiens, UniProt P49768); experiment: Fluorogenic substrate assay with endogenous human γ-secretase from HEK293T cell membrane; format: biochemical; details: for IC50: 10 μg membrane protein, 6 μM substrate, 5 h, 37 °C, mean ± SEM; for maximal inhibition: human γ-secretase, relative to 1 μM L685,458 = 100%
T1 construct: endogenously expressing human γ-secretase from HEK293T cell membrane; endogenous in cells; host or cells: HEK293T cells (membrane fraction, solubilised with 0.25% CHAPSO)
Protocol: All procedures were carried out at 4 °C. […] Mouse cortex was homogenized with 15 stokes of pestle A in the same lysis buffer. The homogenates were centrifuged at 800 g for 10 min to remove nuclei and large debris. The supernatants were centrifuged at 25,000 g for 1 h at 4 °C and the membrane pellets were resuspended in reaction buffer containing 50 mM Tris-HCl (pH 6.8), 2 mM EDTA, 150 mM KCl and Complete^TM protease inhibitor cocktail.
For assay optimization, aliquots of membrane protein (5~30 μg) was added to each well of a 96-well plate with various concentrations of fluorogenic substrate (4~8 μM). Different concentrations of compounds were added and the final reaction system was adjusted to 100 μL/well with the reaction buffer. The plate was incubated at 37 °C in a humidified atmosphere for indicated time periods. Fluorescence was measured using a BIOTEK FLX800 microplate reader with the excitation wavelength at 355 nm and the emission wavelength at 440 nm. The activity of γ-secretase was presented as the relative fluorescent unit (RFU). For compound screening, 1 μM of L685,458 was used as a positive control, and 1% DMSO was used as negative control.
(§1) Data were analyzed with GraphPad Prism software (GraphPad, San Diego, CA, USA). Non-linear regression analyses were performed to generate dose-response curves and calculate IC50 values, and linear regression was used to analyze data reproducibility. Mean ± SEM was calculated automatically with this software. Z’ factor was calculated by the following equation: Z’ = 1 - (3SD++3SD-) / │Ave+ - Ave-│ in which SD+ is the standard deviation of positive control, SD-is the standard deviation of negative control, Ave+ is the mean value of the positive control, and Ave-is the mean value of the negative control.

γ-secretase (Aβ40, Aβ42) [1] = target: γ-secretase (Aβ40, Aβ42); parameters: method as in PMID 15341524; details: Aβ ELISA assay, cited from earlier work
Aβ1-42 = tested on: Aβ1-42; parameters: method as in PMID 10882355; details: read-out: Reported IC50 (Aβ1-42); cited from earlier work
drosophila γ-secretase = target: T2, drosophila γ-secretase (Drosophila melanogaster, UniProt O02194); experiment: Fluorogenic substrate assay with drosophila γ-secretase from S2 cell membrane; format: biochemical
T2 construct: membrane containing drosophila or mouse γ-secretase was isolated from S2 cells or mouse cortex, respectively; host or cells: Drosophila Schneider 2 (S2) cells, membrane fraction

mouse γ-secretase = experiment: Fluorogenic substrate assay with mouse γ-secretase from mouse cortex membrane; format: biochemical; details: mean ± SEM, n = 3
Protocol: All procedures were carried out at 4 °C. HEK 293T or S2 cells were washed with ice-cold PBS by centrifugation at 500 g for 5 min and the pellets were homogenized with a Dounce homogenizer (pestle B, 15 strokes) in lysis buffer contained 5 mM Tris-HCl (pH 7.4), 5 mM EDTA, 5 mM EGTA and Complete^TM protease inhibitor cocktail. Mouse cortex was homogenized with 15 stokes of pestle A in the same lysis buffer. The homogenates were centrifuged at 800 g for 10 min to remove nuclei and large debris. The supernatants were centrifuged at 25,000 g for 1 h at 4 °C and the membrane pellets were resuspended in reaction buffer containing 50 mM Tris-HCl (pH 6.8), 2 mM EDTA, 150 mM KCl and Complete^TM protease inhibitor cocktail. After measuring the protein concentration, the membranes were diluted to 1 mg/ml in 50 mM Tris-HCl, pH 6.8, 2 mM EDTA, 150 mM KCl, 0.25% CHAPSO.
For assay optimization, aliquots of membrane protein (5~30 μg) was added to each well of a 96-well plate with various concentrations of fluorogenic substrate (4~8 μM). Different concentrations of compounds were added and the final reaction system was adjusted to 100 μL/well with the reaction buffer. The plate was incubated at 37 °C in a humidified atmosphere for indicated time periods. Fluorescence was measured using a BIOTEK FLX800 microplate reader with the excitation wavelength at 355 nm and the emission wavelength at 440 nm. The activity of γ-secretase was presented as the relative fluorescent unit (RFU). For compound screening, 1 μM of L685,458 was used as a positive control, and 1% DMSO was used as negative control. The inhibition rate of each compound was calculated with the following equation: InhibitionCompound % = (Average Value1%DMSO-Average Value Compound)/(Average Value1%DMSO-Average ValueL685,458) × 100%. So the inhibition rate of 1 μM L685,458 is 100% and that of 1% DMSO is 0. The samples showing more than 60% inhibition were considered as “hits” in the screening.
as §1

γ-secretase (Aβ40, Aβ42) [2] = target: γ-secretase (Aβ40, Aβ42); parameters: method as in PMID 11574530; details: immunoblotting assay, cited from earlier work
γ-secretase [3] = target: γ-secretase; parameters: method as in PMID 10913280; details: HTRF assay; read-out: Reported IC50; cited from earlier work
γ-secretase [4] = target: γ-secretase; parameters: method as in PMID 16569643; details: in vitro γ-secretase assay; read-out: Reported IC50; cited from earlier work
γ-secretase (Aβ) = details: In vivo γ-secretase assay; read-out: Reported IC50 (Aβ); cited from earlier work
Sup-T1 NICT = tested on: Sup-T1 NICT; parameters: method as in PMID 15319485; details: Sup-T1 NICT assay; read-out: Reported IC50; cited from earlier work
[5] = S2 cell membrane, mean ± SEM, n = 3, read-out: drosophila γ-secretase IC50

T2 sequence (O02194 whole entry): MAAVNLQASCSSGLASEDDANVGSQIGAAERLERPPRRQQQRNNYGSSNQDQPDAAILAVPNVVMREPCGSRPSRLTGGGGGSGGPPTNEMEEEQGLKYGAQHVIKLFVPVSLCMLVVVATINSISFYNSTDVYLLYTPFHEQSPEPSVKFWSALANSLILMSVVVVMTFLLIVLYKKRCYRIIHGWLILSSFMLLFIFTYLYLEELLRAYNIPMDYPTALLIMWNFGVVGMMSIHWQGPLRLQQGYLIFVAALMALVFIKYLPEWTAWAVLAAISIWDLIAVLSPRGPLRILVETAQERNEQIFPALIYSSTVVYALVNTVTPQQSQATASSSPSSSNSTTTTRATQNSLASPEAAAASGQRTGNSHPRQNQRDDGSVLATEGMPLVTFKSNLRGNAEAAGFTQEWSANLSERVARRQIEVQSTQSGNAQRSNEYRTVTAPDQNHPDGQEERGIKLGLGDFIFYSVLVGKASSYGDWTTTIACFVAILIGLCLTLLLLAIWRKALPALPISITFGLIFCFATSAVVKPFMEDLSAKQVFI
T2 sequence (Q9VC27 23-695 partner): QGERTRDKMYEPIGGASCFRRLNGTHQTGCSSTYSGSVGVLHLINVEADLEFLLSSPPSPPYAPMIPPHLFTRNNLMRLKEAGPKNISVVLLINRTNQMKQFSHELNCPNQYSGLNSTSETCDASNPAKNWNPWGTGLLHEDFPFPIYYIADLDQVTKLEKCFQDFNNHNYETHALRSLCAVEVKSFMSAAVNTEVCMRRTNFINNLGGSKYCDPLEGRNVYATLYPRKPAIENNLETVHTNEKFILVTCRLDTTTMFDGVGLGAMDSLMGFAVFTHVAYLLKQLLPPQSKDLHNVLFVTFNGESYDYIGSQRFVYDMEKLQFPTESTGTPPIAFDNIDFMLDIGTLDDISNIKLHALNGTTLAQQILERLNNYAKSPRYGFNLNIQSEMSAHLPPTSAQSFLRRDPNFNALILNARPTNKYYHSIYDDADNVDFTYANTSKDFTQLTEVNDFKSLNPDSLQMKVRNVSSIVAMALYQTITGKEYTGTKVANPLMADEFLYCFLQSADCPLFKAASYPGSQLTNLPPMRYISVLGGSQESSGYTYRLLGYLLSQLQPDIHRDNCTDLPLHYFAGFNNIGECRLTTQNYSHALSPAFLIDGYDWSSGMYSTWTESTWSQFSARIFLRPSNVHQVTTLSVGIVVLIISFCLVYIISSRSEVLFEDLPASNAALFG
T2 sequence (Q9VQG2 whole entry partner): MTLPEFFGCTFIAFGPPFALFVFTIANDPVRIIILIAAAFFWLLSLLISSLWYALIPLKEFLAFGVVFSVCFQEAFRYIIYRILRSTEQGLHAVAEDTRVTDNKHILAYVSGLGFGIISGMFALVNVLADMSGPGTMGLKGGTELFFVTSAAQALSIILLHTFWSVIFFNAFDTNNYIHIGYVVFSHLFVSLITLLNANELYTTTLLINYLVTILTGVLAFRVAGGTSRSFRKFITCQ
T2 sequence (Q86BE9 whole entry partner): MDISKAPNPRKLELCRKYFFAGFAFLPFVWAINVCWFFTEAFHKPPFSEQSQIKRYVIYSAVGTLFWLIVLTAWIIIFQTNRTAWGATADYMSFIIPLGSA

SMILES	IC50 (human γ-secretase) [nM]	maximal inhibition (human γ-secretase) [%]	IC50 (drosophila γ-secretase; [5]) [nM]	IC50 (mouse γ-secretase) [nM]	IC50 (γ-secretase (Aβ40, Aβ42) [1]; read-out: Reported IC50 (Aβ40)) [nM]	IC50 (γ-secretase (Aβ40, Aβ42) [1]; read-out: Reported IC50 (Aβ42)) [nM]	IC50 (Aβ1-42) [nM]	IC50 (γ-secretase (Aβ40, Aβ42) [2]; read-out: Reported IC50 (Aβ40)) [nM]	IC50 (γ-secretase (Aβ40, Aβ42) [2]; read-out: Reported IC50 (Aβ42)) [nM]	IC50 (γ-secretase [3]) [nM]	IC50 (γ-secretase [4]) [nM]	IC50 (γ-secretase (Aβ)) [nM]	IC50 (Sup-T1 NICT) [nM]	IC50 (drosophila γ-secretase) [nM]
C[C@H](NC(=O)Cc1cc(F)cc(F)c1)C(=O)N[C@H](C(=O)OC(C)(C)C)c1ccccc1 [DAPT, N-[N-(3,5-difluorophenacetyl)-L-alanyl]-S-phenylglycine t-butyl ester]	3910 ± 551	69.7	–	–	1600	4000	–	–	–	–	–	–	–	–
CC12CCC(C1)C(C)(C)C2NS(=O)(=O)c1ccc(F)cc1 (stereo not drawn) [Inhibitor VI]	44500 ± 25600	67.3	–	–	–	–	1800	–	–	–	–	–	–	–
C[C@H](NC(=O)Cc1cc(F)cc(F)c1)C(=O)N[C@@H]1C(=O)N(C)c2ccccc2-c2ccccc21 [DBZ]	12.5 ± 5.76	95.2	6.97 ± 1.98	1.45 ± 0.435	–	–	–	–	–	–	–	–	1.7	–
C[C@H](NC(=O)Cc1cc(F)cc(F)c1)C(=O)N[C@H]1N=C(c2ccccc2)c2ccccc2N(C)C1=O [Compound E]	53.9 ± 5.31	92.3	–	2.4 ± 0.605	0.8	7	–	0.24	0.37	–	7	–	–	40.5 ± 7

Now from value to molecule, other results behind:

IC50 (human γ-secretase) [nM]	maximal inhibition (human γ-secretase) [%]	IC50 (drosophila γ-secretase; [5]) [nM]	IC50 (mouse γ-secretase) [nM]	SMILES	IC50 (γ-secretase (Aβ40, Aβ42) [1]; read-out: Reported IC50 (Aβ40)) [nM]	IC50 (γ-secretase (Aβ40, Aβ42) [1]; read-out: Reported IC50 (Aβ42)) [nM]	IC50 (Aβ1-42) [nM]	IC50 (γ-secretase (Aβ40, Aβ42) [2]; read-out: Reported IC50 (Aβ40)) [nM]	IC50 (γ-secretase (Aβ40, Aβ42) [2]; read-out: Reported IC50 (Aβ42)) [nM]	IC50 (γ-secretase [3]) [nM]	IC50 (γ-secretase [4]) [nM]	IC50 (γ-secretase (Aβ)) [nM]	IC50 (Sup-T1 NICT) [nM]	IC50 (drosophila γ-secretase) [nM]
4.43 ± 0.969	–	10.3 ± 1.66	0.976 ± 0.147	CC(C)C[C@H](NC(=O)[C@H](Cc1ccccc1)C[C@@H](O)[C@H](Cc1ccccc1)NC(=O)OC(C)(C)C)C(=O)N[C@@H](Cc1ccccc1)C(N)=O [L685,458]	–	–	–	4	8	17	3	–	–	–
53.5 ± 13.6	103.1	0.933 ± 0.169	20.7 ± 5.24	COC(=O)[C@@H](NC(=O)[C@H](CC(C)C)NC(=O)N(Cc1ccccc1)C[C@@H](O)[C@H](Cc1ccccc1)NC(=O)OC(C)(C)C)C(C)C [31C]	–	–	–	–	–	–	–	300	–	–
